Measurements published in patent US20240016941A1, “COMBINATION THERAPY” (priority 2020, published 2024).
Entries after “also recorded” stand apart in the source; their conditions may differ.

Experiments:
[1] = biological target: T1, purified LasB protein from P. aeruginosa (Pseudomonas aeruginosa, UniProt P14756); assay: Fluorometric assay to determine Ki (purified LasB, Abz-Ala-Gly-Leu-Ala-p-Nitro-Benzyl-Amide substrate); type: biochemical
T1 construct: purchased Merck or Charles River Laboratories
T1 sequence (P14756 198-498): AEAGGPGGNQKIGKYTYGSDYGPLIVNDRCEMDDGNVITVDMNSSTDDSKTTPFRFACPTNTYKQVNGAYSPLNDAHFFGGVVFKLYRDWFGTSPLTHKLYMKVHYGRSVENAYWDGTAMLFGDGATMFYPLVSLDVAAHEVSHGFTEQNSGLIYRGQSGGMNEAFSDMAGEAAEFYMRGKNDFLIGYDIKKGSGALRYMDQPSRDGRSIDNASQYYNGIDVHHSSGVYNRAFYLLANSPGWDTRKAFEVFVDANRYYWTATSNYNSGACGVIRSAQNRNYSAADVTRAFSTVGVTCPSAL
In short: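 Purified P. aeruginosa LasB (10-140 ng/ml) with 250 μM Abz-Ala-Gly-Leu-Ala-p-nitrobenzylamide in Tris pH 7.4, 2.5 mM CaCl2, 0.01% Triton X100; fluorescence (340/415 nm) followed 30 min at 37 °C. IC50 from 2-fold series (0.0016-200 μM); Ki = IC50/(1+[S]/Km), Km 214 μM.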

purified LasB = purified LasB (Pseudomonas aeruginosa, UniProt P14756); assay: Inhibition of LasB-mediated hydrolysis of pro-IL-1β to IL-1β (FRET peptide); type: biochemical
purified LasB, sequence (P14756 198-498): as above
Protocol: Hydrolysis of this FRET peptide was continuously monitored using a Victor multimode plate reader (Perkin Elmer) with excitation 355 nm and emission at 450 nm in the presence of varying concentrations of compounds of the invention. Inhibitory constants (Ki) were determined for certain compounds of the invention (at least 2 independent replicates) using a competitive inhibitor model.

[2] = biological target: T2, LasB elastase activity of dialysed supernatant from P. aeruginosa PAO1 (Pseudomonas aeruginosa, UniProt P14756); assay: Elastin Congo-Red assay to determine % inhibition (dialysed PAO1 supernatant); type: biochemical; conditions: read-out: Elastin hydrolysis % inhibition @ 25 μM inhibitor concentration
T2 construct: Culture supernatants are recovered by centrifugation and filtrated through a 0.22 μM filter; endogenous in cells; host or cells: P. aeruginosa strain PAO1, culture supernatant, filtered and dialysed
T2 sequence (P14756 198-498): as above
In short: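 End-point assay: dialysed PAO1 culture supernatant (in 50 mM Tris-HCl pH 7.4, 2.5 mM CaCl2) mixed with Elastin Congo-Red plus 0.01% Triton X100 and compound (routinely 50 to 1.56 μM), incubated overnight at 37 °C with shaking. Released dye read at OD495nm; % inhibition relative to DMSO and enzyme-free controls.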

PA (PAO1) = assay: Mouse model of Pseudomonas aeruginosa lung infection; type: in vivo; conditions: mice infected with wild-type PAO1, i.v. 1 h and 2 h post infection, 10 and 30 mg/kg, 24 hours post infection
Protocol: Mice were dosed by intranasal inoculation of PA (PAO1), then sacrificed after 24 hours. The extent of infection in the lung was quantified by bacterial load (CFU determination, colony forming units) and the levels of proinflammatory IL-1β. Statistical analysis on both readouts were performed by ANOVA with a Dunnett post-test.
Compounds were administered intravenously in a two-dose regimen (1 hour and 2 hours post infection) at two different doses (10 and 30 mg/kg).

[3] = biological target: T3, LasB from Pseudomonas aeruginosa (Pseudomonas aeruginosa, UniProt P14756); assay: Inhibition of LasB-mediated reduction of CFTR levels on airway cells (CFTR IP / Western blot); type: cell-based; conditions: NHBE airway cells, 100 nM LasB, 1, 10 or 100 μM compound, 24 hrs
T3 construct: host or cells: Exogenous enzyme applied apically to NHBE cells
T3 sequence (P14756 198-498): as above
Protocol: These experiments measured the amount of CFTR protein expressed in airway cells under normal conditions and also exposed to 100 nM LasB. […] The effect of adding increasing concentrations of a LasB inhibitor (here the compound of Example 23) on this reduction of CFTR by LasB was then examined.
Normal Human Bronchial Epithelial (NHBE) airway cells were expanded in Pneumacult™ EX medium on plastic PureCol™ coated dishes. Cells were plated on Millicell inserts (200K/insert) and differentiated at air-liquid interface for 26 days in modified Lonza Medium. Prior to treatment, cells were washed in 1×DPBS buffer.
Treatments were 100 nM LasB from Pseudomonas aeruginosa and 0, 1, 10, or 100 μM Example 23 for 24 hrs. A stock solution of LasB (200 nM) was prepared in buffer containing 50 mM Tris HCL pH 7.4, 2.5 mM CaCl2 and 0.01% TritonX-100. A 20 mM stock solution of Example 23 was made in DMSO and sonicated for 10 minutes. The DMSO stock was diluted, 10 μL into 990 μL buffer, to give a 200 μM solution. […]
The cells were lysed with 1% NP-40 lysis buffer containing protease inhibitors (1 μg/ml leupeptin, 2 μg/ml aprotinin, […] pefabloc, 121 μg/ml benzamidine, 3.5 μg/ml E64) and stored at −80° C. until IP/WB analysis. […] Protein bands were visualized using a Sapphire Biomolecular Imager (Azure Biosystems) and quantitated with AzureSpot Analysis Software.

## COc1cc2sc(CNC(=O)C3(CC(=O)[O-])Cc4cc(F)c(F)cc4C3)nc2cc1OCCC[N+](C)(CCO)CCO [Example 23, 2-[2-[[5-[3-[bis(2-hydroxyethyl)-methyl-ammonio]propoxy]-6-methoxy-1,3-benzothiazol-2-yl]methylcarbamoyl]-5,6-difluoro-indan-2-yl]acetate]
[1]
  Ki: < 50 nM
Purified LasB
  Ki: 500 nM
[2]
  inhibition at 25 µM: > 80%
PA (PAO1)
  extent of infection in the lung (CFU levels): reduced the extent of infection in the lung to the level of the LasB deleted mutant
  production and activation of IL-1β in the lung: inhibited the production and activation of IL-1β in mice infected by wild-type PA (PA01) at a similar level than the lasB deleted mutant
[3]
  CFTR protein level in LasB-exposed cells: ameliorated by increasing concentrations of Example 23; also recorded: counteract the reduction in CFTR expression caused by LasB in a dose-related manner
